Paper PMC5363373, “Zirconium tetraazamacrocycle complexes display extraordinary stability and provide a new strategy for zirconium-89-based radiopharmaceutical development” (Chemical Science, 2016)
“And” between values parts separate entries of the source, which are not always exact repeats. Identical values can stand only once.

Experiments:
[1] = In vitro EDTA challenge study; assay type: physicochemical
Description: In vitro EDTA challenge study. In vitro EDTA challenge study was carried out by adding 10 µL of each 89Zr-labeled complex (70 μCi, 2.59 MBq) to 500 µL of EDTA (10 mM, 50 mM and 100 mM: pH 5 and pH 7) with a 1:100, 1:500, and 1:1000 ratio of ligand/EDTA. The solutions (n=4) were incubated at 37 °C for 7 days in a thermomixer. Samples were analyzed at 30 min, 1 h, 3 h, 6 h, 1 d, 3 d, 5 d and 7 d post administration to EDTA by radio-TLC using Varian ITLC-SA strips and 0.1 M EDTA (pH 5) as the mobile phase and gamma counting using an energy window of 500-1500 keV and standard protocols .

[2] = In vitro metal competition study; assay type: physicochemical; conditions: for % Intact of 89Zr-complexes: PBS pH 7.4, 37 C
Description: In vitro Metal Competition study. To a solution of metal cations [iron (III) chloride, cobalt (II) chloride, zinc (II) chloride, copper (II) chloride, magnesium (II) chloride, gallium (III) nitrate, gadolinium (III) chloride] (1 mM, 200 µL), was added 89Zr-labeled complex (0.1 mM, 10 µL, 80 μCi, 2.96 MBq) in PBS, pH 7.4. The resulting solutions (n = 3) were incubated at 37 °C for 7 days in a thermomixer. Dissociation of 89Zr from 89Zr-complexes was monitored by radio-TLC at 2 h, 1 d, 4 d and 7 d time point. All studies were performed in triplicate.

[3] = In vitro serum stability (radio-ITLC); assay type: in vitro ADME; conditions: 37 C, after 7 days
Description: In vitro serum stability. In vitro serum stability was carried out by adding 10 µL of each 89Zr-labeled complex (70 μCi, 2.59 MBq) to 500 µL of human serum. The solutions (n=4) were incubated at 37 °C for 7 days and were analyzed daily for 1 week by radio -TLC using Varian ITLC-SA strips and 0.1 M EDTA (pH 5) as the mobile phase and gamma counting using an energy window of 500-1500 keV and standard protocols . Serum samples were also analyzed after 7 days by size exclusion chromatography (SEC) using a Superdex 200 10/300 GLTM column (GE Healthcare Life Sciences, Piscataway, NJ) and phosphate buffered saline (PBS) as eluent with a flow rate of 0.5 mL/min.
Figure S30. Radio-ITLC of 89Zr-DOTA solution in human serum at 37 °C after 0 h (a) and 7 days (b). […]

Biodistribution studies = assay type: in vivo, female NIH Swiss mice
Description: Biodistribution Studies. Biodistribution studies were conducted using a modified literature procedure. 7 Briefly, female NIH Swiss mice (6-8 wk old, n=6) were injected with each 89Zr-labeled complex (0.55 MBq (15 μCi)/mouse) via the tail vein, and sacrificed at 2, 4, 24, 48, 72 h post-injection. Organs and tissues of interest were excised, weighted, and counted on a Perkin Elmer 2480 Wizard® gamma counter (Waltham, MA). The percent injected dose per gram (%ID/g) and percent injected dose per organ (%ID/organ) were calculated by comparison to a weighed, counted standard for each group (Tables S9 – S12).
Statistical Methods. All of the data are presented as mean±SD or mean (95% Confidence Interval). For statistical classification a student’s t test (two-tailed, unpaired) was performed using GraphPad Prism (San Diego, CA). Any p<0.05 was considered significant.

[4] = mice, intravenous, 72 h post-injection

Transchelation in EDTA challenge ([1]; 100-, 500-, and 1000-fold excess of EDTA at pH 5 or pH 7 over 7 days): did not undergo transchelation
% Intact of 89Zr-complexes ([1]; EDTA 100-fold, pH 5.0, 37 C, 1 h): 100%
% Intact of 89Zr-complexes ([1]; EDTA 100-fold, pH 5.0, 37 C, 1 d): 100%
% Intact of 89Zr-complexes ([1]; EDTA 100-fold, pH 5.0, 37 C, 3 d): 100%
% Intact of 89Zr-complexes ([1]; EDTA 100-fold, pH 5.0, 37 C, 5 d): 100%
% Intact of 89Zr-complexes ([1]; EDTA 100-fold, pH 5.0, 37 C, 7 d): 100%
% Intact of 89Zr-complexes ([1]; EDTA 100-fold, pH 7.0, 37 C, 1 h): 100%
% Intact of 89Zr-complexes ([1]; EDTA 100-fold, pH 7.0, 37 C, 1 d): 100%
% Intact of 89Zr-complexes ([1]; EDTA 100-fold, pH 7.0, 37 C, 3 d): 100%
% Intact of 89Zr-complexes ([1]; EDTA 100-fold, pH 7.0, 37 C, 5 d): 100%
% Intact of 89Zr-complexes ([1]; EDTA 100-fold, pH 7.0, 37 C, 7 d): 100%
% Intact of 89Zr-complexes ([1]; EDTA 500-fold, pH 5.0, 37 C, 1 h): 100%
% Intact of 89Zr-complexes ([1]; EDTA 500-fold, pH 5.0, 37 C, 1 d): 100%
% Intact of 89Zr-complexes ([1]; EDTA 500-fold, pH 5.0, 37 C, 3 d): 100%
% Intact of 89Zr-complexes ([1]; EDTA 500-fold, pH 5.0, 37 C, 5 d): 100%
% Intact of 89Zr-complexes ([1]; EDTA 500-fold, pH 5.0, 37 C, 7 d): 100%
% Intact of 89Zr-complexes ([1]; EDTA 500-fold, pH 7.0, 37 C, 1 h): 100%
% Intact of 89Zr-complexes ([1]; EDTA 500-fold, pH 7.0, 37 C, 1 d): 100%
% Intact of 89Zr-complexes ([1]; EDTA 500-fold, pH 7.0, 37 C, 3 d): 100%
% Intact of 89Zr-complexes ([1]; EDTA 500-fold, pH 7.0, 37 C, 5 d): 100%
% Intact of 89Zr-complexes ([1]; EDTA 500-fold, pH 7.0, 37 C, 7 d): 100%
% Intact of 89Zr-complexes ([1]; EDTA 1000-fold, pH 5.0, 37 C, 1 h): 100%
% Intact of 89Zr-complexes ([1]; EDTA 1000-fold, pH 5.0, 37 C, 1 d): 100%
% Intact of 89Zr-complexes ([1]; EDTA 1000-fold, pH 5.0, 37 C, 3 d): 100%
% Intact of 89Zr-complexes ([1]; EDTA 1000-fold, pH 5.0, 37 C, 5 d): 100%
% Intact of 89Zr-complexes ([1]; EDTA 1000-fold, pH 5.0, 37 C, 7 d): 100%
% Intact of 89Zr-complexes ([1]; EDTA 1000-fold, pH 7.0, 37 C, 1 h): 100%
% Intact of 89Zr-complexes ([1]; EDTA 1000-fold, pH 7.0, 37 C, 1 d): 100%
% Intact of 89Zr-complexes ([1]; EDTA 1000-fold, pH 7.0, 37 C, 3 d): 100%
% Intact of 89Zr-complexes ([1]; EDTA 1000-fold, pH 7.0, 37 C, 5 d): 100%
% Intact of 89Zr-complexes ([1]; EDTA 1000-fold, pH 7.0, 37 C, 7 d): 100%
% Intact of 89Zr-complexes ([2]; Co2+, 2 h): 100%
% Intact of 89Zr-complexes ([2]; Co2+, 1 d): 100%
% Intact of 89Zr-complexes ([2]; Co2+, 4 d): 100%
% Intact of 89Zr-complexes ([2]; Co2+, 7 d): 100%
% Intact of 89Zr-complexes ([2]; Cu2+, 2 h): 100%
% Intact of 89Zr-complexes ([2]; Cu2+, 1 d): 100%
% Intact of 89Zr-complexes ([2]; Cu2+, 4 d): 100%
% Intact of 89Zr-complexes ([2]; Cu2+, 7 d): 100%
% Intact of 89Zr-complexes ([2]; Fe3+, 2 h): 100%
% Intact of 89Zr-complexes ([2]; Fe3+, 1 d): 100%
% Intact of 89Zr-complexes ([2]; Fe3+, 4 d): 100%
% Intact of 89Zr-complexes ([2]; Fe3+, 7 d): 100%
% Intact of 89Zr-complexes ([2]; Ga3+, 2 h): 100%
% Intact of 89Zr-complexes ([2]; Ga3+, 1 d): 100%
% Intact of 89Zr-complexes ([2]; Ga3+, 4 d): 100%
% Intact of 89Zr-complexes ([2]; Ga3+, 7 d): 100%
% Intact of 89Zr-complexes ([2]; Gd3+, 2 h): 100%
% Intact of 89Zr-complexes ([2]; Gd3+, 1 d): 100%
% Intact of 89Zr-complexes ([2]; Gd3+, 4 d): 100%
% Intact of 89Zr-complexes ([2]; Gd3+, 7 d): 100%
% Intact of 89Zr-complexes ([2]; Mg2+, 2 h): 100%
% Intact of 89Zr-complexes ([2]; Mg2+, 1 d): 100%
% Intact of 89Zr-complexes ([2]; Mg2+, 4 d): 100%
% Intact of 89Zr-complexes ([2]; Mg2+, 7 d): 100%
% Intact of 89Zr-complexes ([2]; Zn2+, 2 h): 100%
% Intact of 89Zr-complexes ([2]; Zn2+, 1 d): 100%
% Intact of 89Zr-complexes ([2]; Zn2+, 4 d): 100%
% Intact of 89Zr-complexes ([2]; Zn2+, 7 d): 100%
Demetallation in metal competition ([2]; excess metal salts in aqueous buffer, over the 7 day experiment): no demetallation
Radio-ITLC peak of complex in human serum [3]: 100%
Blood (Biodistribution studies; 24 h, current study): 0.001±0.000 % ID/g
Bone (Biodistribution studies; 24 h, current study): 0.036±0.008 % ID/g
Heart (Biodistribution studies; 24 h, current study): 0.016±0.004 % ID/g
Kidney (Biodistribution studies; 24 h, current study): 0.317±0.054 % ID/g
Liver (Biodistribution studies; 24 h, current study): 0.068±0.004 % ID/g
Muscle (Biodistribution studies; 24 h, current study): 0.004±0.001 % ID/g
Radioactivity in bone (Biodistribution studies; [4]): 0.025 ± 0.009 % ID per g
Radioactivity in kidney (Biodistribution studies; [4]): 0.078 ± 0.009 % ID per g
Radioactivity in liver (Biodistribution studies; [4]): 0.021 ± 0.002 % ID per g
Radioactivity retention in bone tissue over time (Biodistribution studies; mice, time points up to 72 h): remained low
SMILES: O=C1CN2CCN3CCN4CCN(CC2)CC(=O)[O][89Zr]([O]1)([O]C(=O)C3)[O]C(=O)C4 [89Zr-DOTA]
Radioactivity in blood (Biodistribution studies; [4]): 0.0003 ± 0.001 % ID per g and 0.0003 ± 0.0008 % ID per g
